Patent US10800806B2, “Sterol derivatives and use thereof for treating diseases involving transformed astrocyte cells or for treating malignant haemopathies” (BETA INNOV, priority 2012, dated 2020)

Tests used:
[1] = test system: breast cancer cells (ATCC-HTB-19); assay: Activity in vitro on breast cancer cells; format: cell-based, human; details: 30 μM, ethanolic form
Description: They were obtained from ATCC (ref. ATCC-HTB-19). The culture medium is the same as that used for the liver cancer lines. The doubling time is 20 h. • Colon carcinoma (line HT29/219)
(§1) The cancer cells used are from liver (ref. ATCC-HB-8065), prostate (ref. ATCC-HTB-81), breast (ref. ATCC-HTB-19) cancer cells, and from colon cancer cells (ECACC-HT29/219) of human origin, mentioned above.

[2] = test system: liver cancer cells (ATCC-HB-8065); assay: Activity in vitro on liver cancer cells; format: cell-based, human; details: 30 μM, ethanolic form
Description: They were obtained from ATCC (ref. ATCC-HB-8065). The culture medium consists of MEM (Gibco, USA; ref. 51200) and 10% (v/v) FCS. The doubling time is 60 h. • Prostate cancer cells
as §1

[3] = test system: LDH from Lactobacillus leichmannii (LL); assay: Inhibition of LDH activity, in gel assay after IEF; format: biochemical; details: ethanolic form, 36 mM
Description: The measurements of the activity of LDH and of its inhibition by a routine inhibitor, oxamate (23), were validated by the spectrometric method (24) using the purified LDH of Lactobacillus leichmannii (LL) (Sigma) as standard.
Next, the LDH activities and their inhibition were detected by the “in gel assay” technique (25). The source of activity used was LDH LL and LDH, partially purified, from human GBM lines U87-MG (LDH GBM). “In gel assay” detection was carried out after isoelectric focusing (IEF) on electrophoresis gels of the LDH LL and LDH GBM samples.
The mini-gels of 7.5 (T %) and of 2.6 (C %) are poured into Pi with the Ampholines (BioRad) making it possible to form a pH gradient in the range from 7 to 5 after pre-focusing in a cold chamber. The containers used are of the mini-protean 3 type (BioRad). […]
The LDH activity is detected by the lactate/NAD/MTT/phenazine methosulphate system (formation of a precipitate of the formazan type in the IEF gel); this system is described in reference (25). […]
The activity of LDH is detected by the “in gel assay” technique on IEF electrophoresis gels, which were described in the section “A/ PROTOCOLS 6)” (25); the precision of this technique is 0.2 unit of pH. The activity of LDH is detected by a dark blue precipitate, of the formazan type, the site where LDH activity is located.

[4] = test system: colon cancer cells (ECACC-HT29/219); assay: Activity in vitro on colon cancer cells; format: cell-based, human; details: 15 μM, improved liposomal form
Description: They were obtained from the ECACC collection (Ref. ECACC-85061109). The culture conditions are based on the recommendations in the Sigma-Aldrich information leaflet. • Neuroblastoma (line SH-SY5Y)
as §1

SMILES: CC(=O)OC1C=C2CC(OC(=O)C3COC(C)(C)O3)CCC2(C)C2CCC3(C)C(C(C)CCCC(C)C)CCC3C12 (stereo not shown) [Molecule 2.b, 7-acetoxy-10,13-dimethyl-17-(6-methylheptan-2-yl)-2,3,4,7,8,9,10,11,12,13,14,15,16,17-tetradecahydro-1H-cyclopenta[a]phenanthren-3-yl 2,2-dimethyl-1,3-dioxolane-4-carboxylate]
- effect on cellular division and respiration [1]: no effect
- effect on cellular division and respiration [2]: no effect
- inhibition of the enzymatic activity of LDH LL [3]: almost completely
- toxicity to colon cancer cells [4]: not toxic
